Assay results as given in paper PMC5218480 (PLoS ONE, 2017).

System: MV-4-11 cells
Assay: Gene expression microarray analysis (Affymetrix PrimeView) and GSEA
Type: cell-based, human
Set-up: RFU PODN (11730768_x_at) / Fold change /veh PODN (11730768_x_at) / RFU LINC00158 (11744669_a_at) / Fold change /veh LINC00158 (11744669_a_at) / RFU DUSP10 (11751237_a_at) / Fold change /veh DUSP10 (11751237_a_at) / RFU ID3 (11757404_x_at) / Fold change /veh ID3 (11757404_x_at) / RFU PLEKHG5 (11737974_s_at) / Fold change /veh PLEKHG5 (11737974_s_at) / RFU LRRC4B (11730491_at) / Fold change /veh LRRC4B (11730491_at) / RFU GIMAP4 (11747438_a_at) / Fold change /veh GIMAP4 (11747438_a_at) / RFU KRT8 (11758183_x_at) / Fold change /veh KRT8 (11758183_x_at) / RFU CNN1 (11734310_a_at) / Fold change /veh CNN1 (11734310_a_at) / RFU VPS37D (11726825_at) / Fold change /veh VPS37D (11726825_at) / RFU C10orf10 (11716522_x_at) / Fold change /veh C10orf10 (11716522_x_at) / RFU KIR2DL2 /// KIR2DL4 /// KIR2DL5A /// KIR2DL5B /// KIR2DS1 /// KIR2DS2 /// KIR2DS3 /// KIR2DS4 /// KIR3DL3 /// KIR3DL3 /// KIR3DS1 (11738374_at) / Fold change /veh KIR2DL2 /// KIR2DL4 /// KIR2DL5A /// KIR2DL5B /// KIR2DS1 /// KIR2DS2 /// KIR2DS3 /// KIR2DS4 /// KIR3DL3 /// KIR3DL3 /// KIR3DS1 (11738374_at) / RFU C1QL1 (11718748_at) / Fold change /veh C1QL1 (11718748_at) / RFU TMPRSS4 (11747572_a_at) / Fold change /veh TMPRSS4 (11747572_a_at) / RFU HAMP (11756126_x_at) / Fold change /veh HAMP (11756126_x_at) / RFU RNFT2 (11725882_a_at) / Fold change /veh RNFT2 (11725882_a_at) / RFU NR4A2 (11747474_a_at) / Fold change /veh NR4A2 (11747474_a_at) / RFU ABCC12 (11746883_a_at) / Fold change /veh ABCC12 (11746883_a_at) / RFU TMEM136 (11760407_x_at) / Fold change /veh TMEM136 (11760407_x_at) / RFU CLDN22 /// WWC2 (11732394_at) / Fold change /veh CLDN22 /// WWC2 (11732394_at) / RFU HLA-DPB1 (11760878_x_at) / Fold change /veh HLA-DPB1 (11760878_x_at) / RFU SPINT1 (11716480_a_at) / Fold change /veh SPINT1 (11716480_a_at) / RFU GAP43 (11754022_s_at) / Fold change /veh GAP43 (11754022_s_at) / RFU A4GNT (11735810_at) / Fold change /veh A4GNT (11735810_at) / RFU PRB3 (11715151_x_at) / Fold change /veh PRB3 (11715151_x_at) / RFU TUBB4B (11761932_at) / Fold change /veh TUBB4B (11761932_at) / RFU CAPN14 (11732068_a_at) / Fold change /veh CAPN14 (11732068_a_at) / RFU TMCC2 (11721928_a_at) / Fold change /veh TMCC2 (11721928_a_at) / RFU IRGQ (11745062_a_at) / Fold change /veh IRGQ (11745062_a_at) / RFU FAM174B (11720279_a_at) / Fold change /veh FAM174B (11720279_a_at) / RFU TMPRSS4 (11748680_a_at) / Fold change /veh TMPRSS4 (11748680_a_at) / RFU FAM212B (11763350_a_at) / Fold change /veh FAM212B (11763350_a_at) / RFU PLEKHG5 (11743358_a_at) / Fold change /veh PLEKHG5 (11743358_a_at) / RFU ZSCAN30 (11745921_a_at) / Fold change /veh ZSCAN30 (11745921_a_at) / RFU CMKLR1 (11741424_a_at) / Fold change /veh CMKLR1 (11741424_a_at) / RFU LOC101060620 /// MAPK8IP1 (11723275_at) / Fold change /veh LOC101060620 /// MAPK8IP1 (11723275_at) / RFU SPTSSB (11747773_x_at) / Fold change /veh SPTSSB (11747773_x_at) / RFU PRSS12 (11739890_at) / Fold change /veh PRSS12 (11739890_at) / RFU BIN1 (11741810_x_at) / Fold change /veh BIN1 (11741810_x_at) / RFU WNT11 (11732464_a_at) / Fold change /veh WNT11 (11732464_a_at) / RFU C10orf10 (11716521_a_at) / Fold change /veh C10orf10 (11716521_a_at) / RFU C5orf56 (11738089_at) / Fold change /veh C5orf56 (11738089_at) / RFU CYB561 (11721691_x_at) / Fold change /veh CYB561 (11721691_x_at) / RFU ANKRD19P (11752326_a_at) / Fold change /veh ANKRD19P (11752326_a_at) / RFU OR2T12 /// OR2T33 /// OR2T8 (11738714_s_at) / Fold change /veh OR2T12 /// OR2T33 /// OR2T8 (11738714_s_at) / RFU VCAN (11748164_a_at) / Fold change /veh VCAN (11748164_a_at) / RFU JSRP1 (11732532_at) / Fold change /veh JSRP1 (11732532_at) / RFU KRTAP10-11 (11738290_x_at) / Fold change /veh KRTAP10-11 (11738290_x_at) / RFU MYO3A (11730013_a_at) / Fold change /veh MYO3A (11730013_a_at) / RFU EBF3 (11725865_a_at) / Fold change /veh EBF3 (11725865_a_at) / RFU CAMK2N1 (11719241_x_at) / Fold change /veh CAMK2N1 (11719241_x_at) / RFU C5orf56 (11738088_a_at) / Fold change /veh C5orf56 (11738088_a_at) / RFU OLFML3 (11715873_a_at) / Fold change /veh OLFML3 (11715873_a_at) / RFU LOC100653217 /// NTM (11731650_a_at) / Fold change /veh LOC100653217 /// NTM (11731650_a_at) / RFU MAPK11 (11762145_a_at) / Fold change /veh MAPK11 (11762145_a_at) / RFU FIZ1 (11724087_x_at) / Fold change /veh FIZ1 (11724087_x_at) / RFU OASL (11726364_x_at) / Fold change /veh OASL (11726364_x_at) / RFU SOX15 (11748057_x_at) / Fold change /veh SOX15 (11748057_x_at) / RFU CD79A (11719716_a_at) / Fold change /veh CD79A (11719716_a_at) / RFU HIST1H1D (11736915_at) / Fold change /veh HIST1H1D (11736915_at) / RFU CASKIN2 (11723855_a_at) / Fold change /veh CASKIN2 (11723855_a_at) / RFU LOC730098 (11760151_x_at) / Fold change /veh LOC730098 (11760151_x_at) / RFU OR4N2 (11742367_at) / Fold change /veh OR4N2 (11742367_at) / RFU PRRT2 (11749266_a_at) / Fold change /veh PRRT2 (11749266_a_at) / RFU SNX32 (11753110_a_at) / Fold change /veh SNX32 (11753110_a_at) / RFU CDHR5 (11726645_a_at) / Fold change /veh CDHR5 (11726645_a_at) / RFU RCAN1 (11760418_a_at) / Fold change /veh RCAN1 (11760418_a_at) / RFU FAM167A (11723789_a_at) / Fold change /veh FAM167A (11723789_a_at) / RFU FAM26E (11764081_at) / Fold change /veh FAM26E (11764081_at) / RFU ISYNA1 (11749810_s_at) / Fold change /veh ISYNA1 (11749810_s_at) / RFU ACY1 (11761880_at) / Fold change /veh ACY1 (11761880_at) / RFU 11764098_at / Fold change /veh 11764098_at / RFU SAMD14 (11745864_x_at) / Fold change /veh SAMD14 (11745864_x_at) / RFU NPB (11741838_a_at) / Fold change /veh NPB (11741838_a_at) / RFU TMPRSS6 (11731388_a_at) / Fold change /veh TMPRSS6 (11731388_a_at) / RFU KRTAP10-2 (11738614_at) / Fold change /veh KRTAP10-2 (11738614_at) / RFU ARHGAP8 /// PRR5-ARHGAP8 (11727945_x_at) / Fold change /veh ARHGAP8 /// PRR5-ARHGAP8 (11727945_x_at) / RFU KRTAP5-7 /// NADSYN1 (11734609_at) / Fold change /veh KRTAP5-7 /// NADSYN1 (11734609_at) / RFU RASL12 (11751679_a_at) / Fold change /veh RASL12 (11751679_a_at) / RFU CDKN2B (11736163_a_at) / Fold change /veh CDKN2B (11736163_a_at) / RFU PRF1 (11729649_at) / Fold change /veh PRF1 (11729649_at) / RFU, ZNF638 /// ZNF638-IT1 / Fold change vs veh, ZNF638 /// ZNF638-IT1 / RFU, PANK3 / Fold change vs veh, PANK3 / RFU, SH3YL1 / Fold change vs veh, SH3YL1 / RFU, ZEB2 / Fold change vs veh, ZEB2 / RFU, NRIP1 / Fold change vs veh, NRIP1 / RFU, PTTG1IP / Fold change vs veh, PTTG1IP / RFU, CAPN2 / Fold change vs veh, CAPN2 / RFU, MED14 / Fold change vs veh, MED14 / RFU, SNORA58 / Fold change vs veh, SNORA58 / RFU, C1orf63 / Fold change vs veh, C1orf63 / RFU, LRRFIP1 / Fold change vs veh, LRRFIP1 / RFU, NDUFAF7 / Fold change vs veh, NDUFAF7 / RFU, SLC12A2 / Fold change vs veh, SLC12A2 / RFU, IBTK / Fold change vs veh, IBTK / RFU, ESF1 / Fold change vs veh, ESF1 / Fold change vs veh, TMEM50B / RFU, TAOK1 / Fold change vs veh, TAOK1 / RFU, ACBD3 / Fold change vs veh, ACBD3 / RFU, TMA16 / Fold change vs veh, TMA16 / RFU, RWDD3 / Fold change vs veh, RWDD3 / RFU, BCAT1 / Fold change vs veh, BCAT1 / RFU, EDEM3 / Fold change vs veh, EDEM3 / RFU, TMEM33 / Fold change vs veh, TMEM33 / RFU, WDR75 / Fold change vs veh, WDR75 / RFU, AHCTF1 / Fold change vs veh, AHCTF1 / RFU, TFRC / Fold change vs veh, TFRC / RFU, ZDHHC17 / Fold change vs veh, ZDHHC17 / RFU, NOM1 / Fold change vs veh, NOM1 / RFU, ARL8B / Fold change vs veh, ARL8B / RFU, ZBTB11 / Fold change vs veh, ZBTB11 / RFU, TAMM41 / Fold change vs veh, TAMM41 / RFU, KIAA1704 /// LOC100996395 / Fold change vs veh, KIAA1704 /// LOC100996395 / RFU, ING1 / Fold change vs veh, ING1 / RFU, TRMT61B / Fold change vs veh, TRMT61B / RFU, FUBP3 / Fold change vs veh, FUBP3 / RFU, TP53 / Fold change vs veh, TP53 / RFU, TNKS2 / Fold change vs veh, TNKS2 / RFU, ZFP14 / Fold change vs veh, ZFP14 / RFU, ACTR2 / Fold change vs veh, ACTR2 / RFU, PPP3R1 / Fold change vs veh, PPP3R1 / RFU, PIK3R1 / Fold change vs veh, PIK3R1 / RFU, HNRNPA1 / Fold change vs veh, HNRNPA1 / RFU, RNF170 / Fold change vs veh, RNF170 / RFU, ZNF28 / Fold change vs veh, ZNF28 / RFU, RNGTT / Fold change vs veh, RNGTT / RFU, OGT / Fold change vs veh, OGT / RFU, BRD1 / Fold change vs veh, BRD1 / RFU, MARS / Fold change vs veh, MARS / RFU, ZNF655 / Fold change vs veh, ZNF655 / RFU, FAHD1 / Fold change vs veh, FAHD1 / RFU, BDP1 / Fold change vs veh, BDP1 / RFU, LRRCC1 / Fold change vs veh, LRRCC1 / RFU, ARID1A / Fold change vs veh, ARID1A / RFU, ZNF146 / Fold change vs veh, ZNF146 / RFU, ZNF330 / Fold change vs veh, ZNF330 / RFU, GPN3 / Fold change vs veh, GPN3 / RFU, C9orf123 / Fold change vs veh, C9orf123 / RFU, N4BP2L2 / Fold change vs veh, N4BP2L2 / RFU, ARFIP1 / Fold change vs veh, ARFIP1 / RFU, FAM179B / Fold change vs veh, FAM179B / RFU, BCL10 / Fold change vs veh, BCL10 / RFU, UHRF1BP1L / Fold change vs veh, UHRF1BP1L / RFU, BET1 / Fold change vs veh, BET1 / RFU, CNOT2 / Fold change vs veh, CNOT2 / RFU, ZNF268 / Fold change vs veh, ZNF268 / Fold change vs veh, ZNF507 / RFU, DGCR2 / Fold change vs veh, DGCR2 / RFU, WDSUB1 / Fold change vs veh, WDSUB1 / Fold change vs veh, HSP90B1 /// MIR3652 / RFU, ADSS / Fold change vs veh, ADSS / RFU, GK / Fold change vs veh, GK / RFU, ZNF148 / Fold change vs veh, ZNF148 / RFU, TAF9 / Fold change vs veh, TAF9 / RFU, SLC1A5 / Fold change vs veh, SLC1A5 / RFU, SLMO2 / Fold change vs veh, SLMO2 / RFU, ABCC4 / Fold change vs veh, ABCC4 / RFU, LOC101060439 /// RAP1B / Fold change vs veh, LOC101060439 /// RAP1B / RFU, RFX7 / Fold change vs veh, RFX7 / RFU, GTPBP10 / Fold change vs veh, GTPBP10 / RFU, CNEP1R1 / Fold change vs veh, CNEP1R1 / RFU, BIVM-ERCC5 /// ERCC5 / Fold change vs veh, BIVM-ERCC5 /// ERCC5 / RFU, ILF3 / Fold change vs veh, ILF3 / RFU 11762660_at / Fold change /veh 11762660_at / RFU VCAN (11757783_s_at) / Fold change /veh VCAN (11757783_s_at) / RFU DDX43 (11728927_at) / Fold change /veh DDX43 (11728927_at) / RFU KRT8 (11758188_x_at) / Fold change /veh KRT8 (11758188_x_at) / RFU NKD1 (11759106_at) / Fold change /veh NKD1 (11759106_at) / RFU SRD5A1 (11742802_a_at) / Fold change /veh SRD5A1 (11742802_a_at) / RFU TPSAB1 /// TPSB2 (11721975_s_at) / Fold change /veh TPSAB1 /// TPSB2 (11721975_s_at) / RFU GSTM3 (11746129_a_at) / Fold change /veh GSTM3 (11746129_a_at) / RFU IL23R (11737362_x_at) / Fold change /veh IL23R (11737362_x_at) / RFU TMEM51 (11727254_a_at) / Fold change /veh TMEM51 (11727254_a_at) / RFU PIWIL2 (11732686_x_at) / Fold change /veh PIWIL2 (11732686_x_at) / RFU ORM1 (11744905_x_at) / Fold change /veh ORM1 (11744905_x_at) / RFU CCDC152 (11743942_at) / Fold change /veh CCDC152 (11743942_at) / RFU ECM1 (11717891_a_at) / Fold change /veh ECM1 (11717891_a_at) / RFU IL23R (11748794_a_at) / Fold change /veh IL23R (11748794_a_at) / RFU TNFAIP8L3 (11732012_x_at) / Fold change /veh TNFAIP8L3 (11732012_x_at) / RFU MBOAT4 (11741988_at) / Fold change /veh MBOAT4 (11741988_at) / RFU 11764193_at / Fold change /veh 11764193_at / RFU TMEM53 (11763286_at) / Fold change /veh TMEM53 (11763286_at) / RFU MAGEB2 (11727129_at) / Fold change /veh MAGEB2 (11727129_at) / RFU TMEM200A (11744735_a_at) / Fold change /veh TMEM200A (11744735_a_at) / RFU CCDC152 (11751479_a_at) / Fold change /veh CCDC152 (11751479_a_at) / RFU FAM211A (11726209_a_at) / Fold change /veh FAM211A (11726209_a_at) / RFU RGS16 (11746705_a_at) / Fold change /veh RGS16 (11746705_a_at) / RFU VCAN (11755009_s_at) / Fold change /veh VCAN (11755009_s_at) / RFU RHOB (11743442_s_at) / Fold change /veh RHOB (11743442_s_at) / RFU RGS16 (11720943_a_at) / Fold change /veh RGS16 (11720943_a_at) / RFU RGS16 (11720944_at) / Fold change /veh RGS16 (11720944_at) / RFU, VPS4B / Fold change vs veh, VPS4B / RFU, CREB1 / Fold change vs veh, CREB1 / RFU, DNAJC13 / Fold change vs veh, DNAJC13 / RFU, GNAQ / Fold change vs veh, GNAQ / RFU, CDK5R1 / Fold change vs veh, CDK5R1 / RFU, ZRANB3 / Fold change vs veh, ZRANB3 / RFU, CUL4A / Fold change vs veh, CUL4A / RFU, CCNY / Fold change vs veh, CCNY / RFU, UFL1 / Fold change vs veh, UFL1 / RFU, COG3 / Fold change vs veh, COG3 / RFU, DIAPH2 / Fold change vs veh, DIAPH2 / RFU, SKA2 / Fold change vs veh, SKA2 / RFU, AFF3 / Fold change vs veh, AFF3 / RFU, LMF1 / Fold change vs veh, LMF1 / RFU, IPO11 / Fold change vs veh, IPO11 / RFU, DFFB / Fold change vs veh, DFFB / RFU, FOXP1 / Fold change vs veh, FOXP1 / RFU, CARD8 / Fold change vs veh, CARD8 / RFU, STRN3 / Fold change vs veh, STRN3 / RFU, ADK / Fold change vs veh, ADK / RFU, RASSF2 / Fold change vs veh, RASSF2 / RFU, WIPF1 / Fold change vs veh, WIPF1 / RFU, LARP1B / Fold change vs veh, LARP1B / RFU, RASA1 / Fold change vs veh, RASA1 / RFU, RB1 / Fold change vs veh, RB1 / RFU, PPFIA1 / Fold change vs veh, PPFIA1 / RFU, MAT2A / Fold change vs veh, MAT2A / RFU, CCT5 / Fold change vs veh, CCT5 / RFU, WDR92 / Fold change vs veh, WDR92 / RFU, CUX1 / Fold change vs veh, CUX1 / RFU, TTC7A / Fold change vs veh, TTC7A / RFU, TMEM135 / Fold change vs veh, TMEM135 / RFU, DEPTOR / Fold change vs veh, DEPTOR / RFU, CPM / Fold change vs veh, CPM / RFU, DNAJB6 / Fold change vs veh, DNAJB6 / RFU, CACNA2D3 / Fold change vs veh, CACNA2D3 / RFU, DTX4 / Fold change vs veh, DTX4 / RFU, TFCP2 / Fold change vs veh, TFCP2 / RFU, GMCL1 /// GMCL1P1 / Fold change vs veh, GMCL1 /// GMCL1P1 / RFU, AEBP2 / Fold change vs veh, AEBP2 / RFU, SNHG1 /// SNORD22 /// SNORD25 /// SNORD26 /// SNORD27 /// SNORD28 /// SNORD29 /// SNORD31 / Fold change vs veh, SNHG1 /// SNORD22 /// SNORD25 /// SNORD26 /// SNORD27 /// SNORD28 /// SNORD29 /// SNORD31 / Fold change (Aza/veh), C12orf56 (ProbeSet 11735607_a_at) / Fold change (ACY-1035/veh), C12orf56 (ProbeSet 11735607_a_at) / Fold change (Aza/veh), FGFR1OP (ProbeSet 11751329_s_at) / Fold change (ACY-1035/veh), FGFR1OP (ProbeSet 11751329_s_at) / Fold change (Aza/veh), VPS36 (ProbeSet 11739960_a_at) / Fold change (ACY-1035/veh), VPS36 (ProbeSet 11739960_a_at) / RFU SYPL1 (11715823_x_at) / Fold change /veh SYPL1 (11715823_x_at) / RFU IGFBP7 (11715501_s_at) / Fold change /veh IGFBP7 (11715501_s_at) / RFU REEP3 (11722064_at) / Fold change /veh REEP3 (11722064_at) / RFU IGLL1 (11728026_x_at) / Fold change /veh IGLL1 (11728026_x_at): dose or concentration left out as unconfirmed
Conditions: ProbeSet 11717523_x_at; LIST B

Nc1ccc(-c2cccs2)cc1NC(=O)c1ccc2c(c1)cc(C1CC1)n2CCN1CCOCC1 [ACY-1035]
Fold change vs veh, TMEM50B: 0.88
